Data reported in patent publication US6737383B1, “Herbicidal oxadiazolidines” (priority 1999, dated 2004).

Assays:
wheat = test: Test B pre/postemergence wheat; assay type: in vivo, Triticum aestivum
Summary of the method: (§1)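 Herbicidal effect was estimated by eye on a ten-point control scale after plants spent twelve to sixteen days in a greenhouse following soil or foliar treatment. Foliar sprays targeted plants at one to four leaves; all doses were formulated in a non-phytotoxic solvent with surfactant.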

cocklebur = test: Test B pre/postemergence cocklebur; assay type: in vivo, Xanthium strumarium
Summary of the method: as §1

pigweed = test: Test B pre/postemergence pigweed; assay type: in vivo, Amaranthus retroflexus
Summary of the method: as §1

soybean = test: Test B pre/postemergence soybean; assay type: in vivo, Glycine max
Summary of the method: as §1

surinam grass = test: Test B pre/postemergence surinam grass; assay type: in vivo, Brachiaria decumbens
Summary of the method: as §1

wild oat = test: Test B pre/postemergence wild oat; assay type: in vivo, Avena fatua
Summary of the method: as §1

smallflower flatsedge = test: Test B flood test smallflower flatsedge; assay type: in vivo, Cyperus difformis
Summary of the method: (§2)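 Read-out is a visual response score from 0 (no effect) to 10 (complete control), assigned by comparison with untreated controls. Treatment was applied at the 2-leaf stage, and plants stayed in the greenhouse for twelve to sixteen days before scoring.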

velvetleaf = test: Test B pre/postemergence velvetleaf; assay type: in vivo, Abutilon theophrasti
Summary of the method: as §1

bedstraw = test: Test B pre/postemergence bedstraw; assay type: in vivo, Galium aparine; details: for Bedstraw plant response rating: Postemergence
Summary of the method: as §1

duck salad = test: Test B flood test duck salad; assay type: in vivo, Heteranthera limosa
Summary of the method: as §2

rape = test: Test B pre/postemergence rape; assay type: in vivo, Brassica napus
Summary of the method: as §1

sugar beet = test: Test B pre/postemergence sugar beet; assay type: in vivo, Beta vulgaris
Summary of the method: as §1

corn = test: Test B pre/postemergence corn; assay type: in vivo, Zea mays
Summary of the method: as §1

rice = test: Test B flood test rice; assay type: in vivo, Oryza sativa
Summary of the method: as §2

purple nutsedge = test: Test B pre/postemergence purple nutsedge; assay type: in vivo, Cyperus rotundus
Summary of the method: as §1

giant foxtail = test: Test B pre/postemergence giant foxtail; assay type: in vivo, Setaria faberii
Summary of the method: as §1

[1] = Postemergence, Rate 250 g/ha, scale 0 to 10
[2] = Postemergence, Rate 500 g/ha, scale of 0 to 10 where 0 is no effect and 10 is complete control
[3] = Preemergence, Rate 62 g/ha, scale 0 to 10 (0 no effect, 10 complete control)
[4] = Preemergence, Rate 125 g/ha, scale of 0 to 10 where 0 is no effect and 10 is complete control
[5] = Preemergence, Rate 250 g/ha, scale 0 to 10, 0 is no effect, 10 is complete control
[6] = Preemergence, Rate 500 g/ha, scale 0 to 10, 0 is no effect, 10 is complete control
[7] = Rate 125 g/ha, Postemergence, scale 0 to 10, 0 is no effect, 10 is complete control
[8] = Rate 62 g/ha, Postemergence, scale of 0 to 10 where 0 is no effect and 10 is complete control
[9] = Postemergence, Rate 250 g/ha, scale 0 to 10, 0 no effect, 10 complete control
[10] = Postemergence block (flood test species), Rate 250 g/ha, scale 0 to 10
[11] = Postemergence section (flood test species), Rate 500 g/ha, scale of 0 to 10 where 0 is no effect and 10 is complete control
[12] = Rate 125 g/ha, Postemergence section (flood test species), scale 0 to 10, 0 is no effect, 10 is complete control
[13] = Rate 62 g/ha, Postemergence (flood test species), scale of 0 to 10 where 0 is no effect and 10 is complete control

CC(C)N(C(=O)n1oc(=O)n(CC#N)c1=O)c1ccc(F)cc1F [Compound 431]
Wheat plant response rating (wheat; [1]): 0
Wheat plant response rating (wheat; [2]): 0
Plant response rating, Wheat (wheat; [3]): 0
Plant response rating, Wheat (wheat; [4]): 0
Wheat plant response rating (wheat; [5]): 0
Wheat plant response rating (wheat; [6]): 0
Wheat plant response rating (wheat; [7]): 0
Cocklebur plant response rating (cocklebur; [1]): 0
Cocklebur plant response rating (cocklebur; [2]): 0
Plant response rating, Cocklebur (cocklebur; [3]): 0
Plant response rating, Cocklebur (cocklebur; [4]): 0
Cocklebur plant response rating (cocklebur; [5]): 0
Cocklebur plant response rating (cocklebur; [8]): 0
Cocklebur plant response rating (cocklebur; [7]): 0
Redroot pigweed plant response rating (pigweed; [1]): 0
Redroot pigweed plant response rating (pigweed; [2]): 0
Plant response rating, Redroot pigweed (pigweed; [3]): 0
Plant response rating, Redroot pigweed (pigweed; [4]): 0
Redroot pigweed plant response rating (pigweed; [5]): 0
Redroot pigweed plant response rating (pigweed; [6]): 0
Redroot pigweed plant response rating (pigweed; [7]): 0
Soybean plant response rating (soybean; [1]): 1
Soybean plant response rating (soybean; [2]): 2
Plant response rating, Soybean (soybean; [3]): 0
Plant response rating, Soybean (soybean; [4]): 0
Soybean plant response rating (soybean; [5]): 0
Soybean plant response rating (soybean; [6]): 0
Soybean plant response rating (soybean; [7]): 1
B. signalgrass plant response rating (surinam grass; [9]): 0
B. signalgrass plant response rating (surinam grass; [2]): 2
Plant response rating, B. signalgrass (surinam grass; [3]): 0
Plant response rating, B. signalgrass (surinam grass; [4]): 0
B. signalgrass plant response rating (surinam grass; [5]): 0
B. signalgrass plant response rating (surinam grass; [6]): 0
B. signalgrass plant response rating (surinam grass; [8]): 0
B. signalgrass plant response rating (surinam grass; [7]): 0
Wild oats plant response rating (wild oat; [1]): 0
Wild oats plant response rating (wild oat; [2]): 0
Plant response rating, Wild oats (wild oat; [3]): 0
Plant response rating, Wild oats (wild oat; [4]): 0
Wild oats plant response rating (wild oat; [5]): 2
Wild oats plant response rating (wild oat; [6]): 2
Wild oats plant response rating (wild oat; [7]): 0
S. Flatsedge plant response rating (smallflower flatsedge; [10]): 0
S. Flatsedge plant response rating (smallflower flatsedge; [11]): 0
S. Flatsedge plant response rating (smallflower flatsedge; [12]): 0
Velvetleaf plant response rating (velvetleaf; [1]): 0
Velvetleaf plant response rating (velvetleaf; [2]): 2
Plant response rating, Velvetleaf (velvetleaf; [3]): 0
Plant response rating, Velvetleaf (velvetleaf; [4]): 0
Velvetleaf plant response rating (velvetleaf; [5]): 0
Velvetleaf plant response rating (velvetleaf; [6]): 0
Velvetleaf plant response rating (velvetleaf; [7]): 0
Plant response rating, Bedstraw (bedstraw; [3]): 0
Ducksalad plant response rating (duck salad; [10]): 0
Ducksalad plant response rating (duck salad; [11]): 0
Ducksalad plant response rating (duck salad; [13]): 0
Ducksalad plant response rating (duck salad; [12]): 0
Rape plant response rating (rape; [1]): 0
Rape plant response rating (rape; [2]): 0
Plant response rating, Rape (rape; [3]): 0
Plant response rating, Rape (rape; [4]): 0
Rape plant response rating (rape; [5]): 0
Rape plant response rating (rape; [6]): 3
Rape plant response rating (rape; [7]): 0
Sugarbeets plant response rating (sugar beet; [1]): 0
Sugarbeets plant response rating (sugar beet; [2]): 0
Plant response rating, Sugarbeets (sugar beet; [3]): 0
Plant response rating, Sugarbeets (sugar beet; [4]): 0
Sugarbeets plant response rating (sugar beet; [5]): 0
Sugarbeets plant response rating (sugar beet; [6]): 0
Sugarbeets plant response rating (sugar beet; [7]): 0
Corn plant response rating (corn; [1]): 0
Corn plant response rating (corn; [2]): 0
Plant response rating, Corn (corn; [3]): 0
Plant response rating, Corn (corn; [4]): 0
Corn plant response rating (corn; [5]): 0
Corn plant response rating (corn; [6]): 0
Corn plant response rating (corn; [8]): 0
Corn plant response rating (corn; [7]): 0
Rice plant response rating (rice; [10]): 0
Rice plant response rating (rice; [11]): 0
Rice plant response rating (rice; [12]): 0
Nutsedge plant response rating (purple nutsedge; [1]): 0
Nutsedge plant response rating (purple nutsedge; [2]): 0
Plant response rating, Nutsedge (purple nutsedge; [3]): 0
Plant response rating, Nutsedge (purple nutsedge; [4]): 0
Nutsedge plant response rating (purple nutsedge; [5]): 0
Nutsedge plant response rating (purple nutsedge; [6]): 0
Nutsedge plant response rating (purple nutsedge; [7]): 0
Giant foxtail plant response rating (giant foxtail; [1]): 0
Giant foxtail plant response rating (giant foxtail; [2]): 6
Plant response rating, Giant foxtail (giant foxtail; [3]): 0
Plant response rating, Giant foxtail (giant foxtail; [4]): 0
Giant foxtail plant response rating (giant foxtail; [5]): 2
Giant foxtail plant response rating (giant foxtail; [6]): 3
Giant foxtail plant response rating (giant foxtail; [8]): 0
Giant foxtail plant response rating (giant foxtail; [7]): 0

CC(C)N(C(=O)n1oc(=O)n(CCC#N)c1=O)c1ccc(F)cc1F [Compound 433]
Wheat plant response rating (wheat; [1]): 0
Wheat plant response rating (wheat; [2]): 3
Plant response rating, Wheat (wheat; [3]): 0
Plant response rating, Wheat (wheat; [4]): 0
Wheat plant response rating (wheat; [5]): 0
Wheat plant response rating (wheat; [6]): 2
Wheat plant response rating (wheat; [7]): 0
Cocklebur plant response rating (cocklebur; [1]): 0
Cocklebur plant response rating (cocklebur; [2]): 0
Plant response rating, Cocklebur (cocklebur; [3]): 0
Plant response rating, Cocklebur (cocklebur; [4]): 0
Cocklebur plant response rating (cocklebur; [5]): 2
Cocklebur plant response rating (cocklebur; [6]): 3
Cocklebur plant response rating (cocklebur; [8]): 0
Cocklebur plant response rating (cocklebur; [7]): 0
Redroot pigweed plant response rating (pigweed; [1]): 2
Redroot pigweed plant response rating (pigweed; [2]): 3
Plant response rating, Redroot pigweed (pigweed; [3]): 0
Plant response rating, Redroot pigweed (pigweed; [4]): 4
Redroot pigweed plant response rating (pigweed; [5]): 7
Redroot pigweed plant response rating (pigweed; [6]): 10
Redroot pigweed plant response rating (pigweed; [7]): 0
Soybean plant response rating (soybean; [1]): 2
Soybean plant response rating (soybean; [2]): 2
Plant response rating, Soybean (soybean; [3]): 0
Plant response rating, Soybean (soybean; [4]): 0
Soybean plant response rating (soybean; [5]): 0
Soybean plant response rating (soybean; [6]): 0
Soybean plant response rating (soybean; [7]): 2
B. signalgrass plant response rating (surinam grass; [9]): 3
B. signalgrass plant response rating (surinam grass; [2]): 6
Plant response rating, B. signalgrass (surinam grass; [3]): 2
Plant response rating, B. signalgrass (surinam grass; [4]): 2
B. signalgrass plant response rating (surinam grass; [5]): 2
B. signalgrass plant response rating (surinam grass; [6]): 6
B. signalgrass plant response rating (surinam grass; [8]): 0
B. signalgrass plant response rating (surinam grass; [7]): 1
Wild oats plant response rating (wild oat; [1]): 0
Wild oats plant response rating (wild oat; [2]): 2
Plant response rating, Wild oats (wild oat; [3]): 2
Plant response rating, Wild oats (wild oat; [4]): 6
Wild oats plant response rating (wild oat; [5]): 6
Wild oats plant response rating (wild oat; [6]): 8
Wild oats plant response rating (wild oat; [7]): 0
S. Flatsedge plant response rating (smallflower flatsedge; [10]): 0
S. Flatsedge plant response rating (smallflower flatsedge; [11]): 0
S. Flatsedge plant response rating (smallflower flatsedge; [12]): 0
Velvetleaf plant response rating (velvetleaf; [1]): 2
Velvetleaf plant response rating (velvetleaf; [2]): 4
Plant response rating, Velvetleaf (velvetleaf; [3]): 2
Plant response rating, Velvetleaf (velvetleaf; [4]): 2
Velvetleaf plant response rating (velvetleaf; [5]): 4
Velvetleaf plant response rating (velvetleaf; [6]): 6
Velvetleaf plant response rating (velvetleaf; [7]): 0
Bedstraw plant response rating (bedstraw; Rate 250 g/ha, scale 0 to 10): 5
Bedstraw plant response rating (bedstraw; Rate 500 g/ha, scale of 0 to 10 where 0 is no effect and 10 is complete control): 7
Bedstraw plant response rating (bedstraw; Rate 125 g/ha, scale 0 to 10, 0 is no effect, 10 is complete control): 2
Ducksalad plant response rating (duck salad; [10]): 0
Ducksalad plant response rating (duck salad; [11]): 0
Ducksalad plant response rating (duck salad; [13]): 0
Ducksalad plant response rating (duck salad; [12]): 0
Rape plant response rating (rape; [1]): 0
Rape plant response rating (rape; [2]): 0
Plant response rating, Rape (rape; [3]): 0
Plant response rating, Rape (rape; [4]): 0
Rape plant response rating (rape; [5]): 3
Rape plant response rating (rape; [6]): 7
Rape plant response rating (rape; [7]): 0
Sugarbeets plant response rating (sugar beet; [1]): 0
Sugarbeets plant response rating (sugar beet; [2]): 0
Plant response rating, Sugarbeets (sugar beet; [3]): 0
Plant response rating, Sugarbeets (sugar beet; [4]): 2
Sugarbeets plant response rating (sugar beet; [5]): 4
Sugarbeets plant response rating (sugar beet; [6]): 8
Sugarbeets plant response rating (sugar beet; [7]): 0
Corn plant response rating (corn; [1]): 0
Corn plant response rating (corn; [2]): 3
Plant response rating, Corn (corn; [3]): 0
Plant response rating, Corn (corn; [4]): 0
Corn plant response rating (corn; [5]): 0
Corn plant response rating (corn; [6]): 0
Corn plant response rating (corn; [8]): 0
Corn plant response rating (corn; [7]): 0
Rice plant response rating (rice; [10]): 0
Rice plant response rating (rice; [11]): 0
Rice plant response rating (rice; [12]): 0
Nutsedge plant response rating (purple nutsedge; [1]): 0
Nutsedge plant response rating (purple nutsedge; [2]): 0
Plant response rating, Nutsedge (purple nutsedge; [3]): 0
Plant response rating, Nutsedge (purple nutsedge; [4]): 0
Nutsedge plant response rating (purple nutsedge; [5]): 0
Nutsedge plant response rating (purple nutsedge; [6]): 0
Nutsedge plant response rating (purple nutsedge; [7]): 0
Giant foxtail plant response rating (giant foxtail; [1]): 6
Giant foxtail plant response rating (giant foxtail; [2]): 8
Plant response rating, Giant foxtail (giant foxtail; [3]): 10
Plant response rating, Giant foxtail (giant foxtail; [4]): 10
Giant foxtail plant response rating (giant foxtail; [5]): 10
Giant foxtail plant response rating (giant foxtail; [6]): 10
Giant foxtail plant response rating (giant foxtail; [8]): 4
Giant foxtail plant response rating (giant foxtail; [7]): 4
